From patent US20110196035A1, “Temporally-Controlled Treatment of Joint Disease” (priority 2010, published 2011)
Like-named read-outs stand apart in the source and are kept apart here.

Test system: HIG-82 synovial cells
Experimental: After having made these measurements at various times following insertion of the test composition into the simulated joint, the effect on MMP production by synovial cells for relevant blocker concentrations and times of exposure was measured employing a confluent layer of HIG-82 synovial cells in serumless Neuman-Tytell growth medium, which is a model system commonly used by those skilled in the art to represent human synovial tissue for the purpose of studying the proinflammatory effects of IL-1 and the antagonization thereon produced by agents of interest, for example, calcium-channel blockers.
The MMP levels in the medium conditioned by the cells were measured using the assay described in Kolomytkin, O. V., Marino, A. A., Waddell, D. D., Mathis, J. M., Wolf, R. E., Sadasivan, K. K. and Albright, J. A. IL-1β-induced Production of Metalloproteinases by Synovial Cells Depends on Gap-junction Conductance.

`COc1ccc(CCN(C)CCCC(C#N)(c2ccc(OC)c(OC)c2)C(C)C)cc1OC` (racemic) [racemic verapamil, verapamil] was tested, and the “reduction of MMP activity” value (0.009 mg/mL for 300 hours) was “about 21%”, the “reduction of MMP production/activity” value (0.05 mg/mL for 32 hours) was 59% and the “reduction of MMP production/activity” value (0.05 mg/mL for 34 hours) was 61%. The “reduction in MMP activity” value (0.05 mg/mL for 62 hours) was 87%, the inhibition at 50 µg/mL (Synovial cell, 45 h, read-out: maximum MMP inhibition) was roughly 81% and the inhibition at 31 µg/mL (Synovial cell, 300 h, read-out: MMP inhibition) was roughly 61%. For the same molecule, the inhibition at 19 µg/mL (Synovial cell, 300 h, read-out: maximum MMP inhibition) was 37%, the inhibition at 50 µg/mL (Synovial cell, read-out: MMP inhibition) was 81% and the “reduction of MMP production” value (conditions of 2 mg in saline composition: average 0.006 mg/mL, about 35 hours) was 13%. The “verapamil concentration at which MMP inhibition reaches its maximum value” (exposure about 45 hours, further increases give no enhanced inhibition) was “about 0.05 mg/mL”, the “maximum MMP inhibition” value (exposure time 10 hours (FIG. 3A)) was 22% and the “maximum MMP inhibition” value (exposure time 100 hours (FIG. 3A)) was 91%.
